According to patent US20190008957A1, “COMBINATION THERAPIES INCLUDING INHIBITORS OF THE EXTRACELLULAR DOMAIN OF E-CADHERIN” (The Research Foundation for The State of New York, priority 2012, published 2019):
Where a SMILES comes first, the peptide text is derived from it. [ ]: non-standard residue; d: D form. Nle = CCCC[C@H](N)C(=O)O

Experiments:
[1] = test system: breast (MCF-7, SKBR3) cells; assay: Transwell migration of breast cancer cells; format: cell-based, human
Description: (§1) For BrdU staining, cells were incubated with 10 μM BrdU for 2 h prior to fixation and processed for immunofluorescence microscopy as previously described (Brouxhon et al., Cancer Res. 67:7654-64, 2007). For BrdU analyses, cells were counted from 6 low-power fields (×100) per section. BrdU incorporation was also analyzed by a cell proliferation ELISA 5-bromo-2′-deoxyuridine (BrdU) (colorimetric) kit (Roche, Stockholm, Sweden), according to the manufacturer's instructions. Migration and invasion of cells were measured using 8.0 μm pore BD BioCoat Control Insert 24-well plates (no. 354578) and Matrigel Invasion Chamber 24-well Plates (no. 354480), respectively (BD Bioscience). Cells were collected, washed, and 2×10^5 cells were plated in 0.4% FBS medium in the top chamber, with 0-20 μg/mL of rhEcad/Fc in the bottom chamber. […] Migrated or invaded cells on the lower surface were fixed with methanol, stained with 0.5% crystal violet, examined by bright field microscopy and photographed. Migration or invasion was quantitated by counting migrated or invaded cells in at least ten random high-power fields per insert and expressed as averages. Results are presented as fold change of the number of migrated/invaded cells to the untreated controls in triplicate experiments.

HER1-4 = assay: Western blot of HER phosphorylation in breast cancer cells; format: cell-based, human; details: MCF-7 cells, equimolar concentrations, compared to sEcad alone
From the text: The association of sEcad with these RTK was also confirmed by in vitro studies. Specifically, in cell culture systems, extracts from sEcad (rhEcad/Fc:His tagged) treated E-cadherin positive MCF-7 and E-cadherin negative SKBR3 and MDA-MB-231 breast cancer cells were immunoprecipitated with HER1-4-specific antibodies and analyzed by western blotting with a His-tagged-specific antibody. Here, we detected HER1-4-sEcad, HER1-2-sEcad and HER1-sEcad interactions in MCF, SKBR3 and MDA-MB-231 breast cancer cells, respectively. […] Because ligand binding to the HER family of receptors induces the formation of homo- and heterodimers, resulting in phosphorylation on specific tyrosine residues within the cytoplasmic domain (Yarden and Siliwkowski, Nature Reviews. 2:127-137, 2001), we next used western blot assays to examine whether sEcad promotes HER phosphorylation and downstream signaling.
Immunoprecipitation assays were carried out by harvesting tissues or cells with immunoprecipitation lysis buffer (20 mM Tris-HCl, pH 7.5; 137 mM NaCl; 100 mM NaF; 10% glycerol (vol/vol); 1% (vol/vol) Nonidet P-40; 1 mM PMSF and protease inhibitor cocktail (Sigma)). After brief sonication, lysates were cleared by centrifugation at 4° C. […] Western blot images were captured using HP Scanjet G4050 and analyzed relative to G3PDH or actin using NIH Scion Image. […]

[2] = test system: MDA-MB-231 and MCF-7 breast cancer cells; assay: Matrigel invasion of breast cancer cells; format: cell-based, human
Description: as §1

[3] = test system: MCF-7, SKBR3 and MDA-MB-231 breast cancer cell lines; assay: BrdU proliferation in breast cancer cell lines; format: cell-based, human; details: for basal and sEcad-induced BrdU incorporation: breast cancer cells, Canertinib 1 μM, Lapatinib 5 μM, Gefitinib 5 μM
Description: (§2) For BrdU staining, cells were incubated with 10 μM BrdU for 2 h prior to fixation and processed for immunofluorescence microscopy as previously described (Brouxhon et al., Cancer Res. 67:7654-64, 2007). For BrdU analyses, cells were counted from 6 low-power fields (×100) per section. BrdU incorporation was also analyzed by a cell proliferation ELISA 5-bromo-2′-deoxyuridine (BrdU) (colorimetric) kit (Roche, Stockholm, Sweden), according to the manufacturer's instructions. Migration and invasion of cells were measured using 8.0 μm pore BD BioCoat Control Insert 24-well plates (no. 354578) and Matrigel Invasion Chamber 24-well Plates (no. 354480), respectively (BD Bioscience). Cells were collected, washed, and 2×10^5 cells were plated in 0.4% FBS medium in the top chamber, with 0-20 μg/mL of rhEcad/Fc in the bottom chamber. After 22 h, cells on the top were removed using a cotton swab. Migrated or invaded cells on the lower surface were fixed with methanol, stained with 0.5% crystal violet, examined by bright field microscopy and photographed. Migration or invasion was quantitated by counting migrated or invaded cells in at least ten random high-power fields per insert and expressed as averages. Results are presented as fold change of the number of migrated/invaded cells to the untreated controls in triplicate experiments.

[4] = test system: skin (PAM212, CC4A, SCC12b, SCC13) and oropharyngeal (FADU) cells; assay: Transwell migration of SCC cells; format: cell-based; details: PAM212 skin SCC cells; HER inhibitors
Description: as §2

HER1, HER2, IGF-1R = assay: Western blot of receptor phosphorylation in skin and oropharyngeal SCC cell lines; format: cell-based; details: PAM212 cells
Description: (§3) After brief sonication, lysates were cleared by centrifugation at 4° C. […] After transfer to nitrocellulose membrane and blocking with 1% BSA, samples were probed with primary antibodies. Western blot images were captured using HP Scanjet G4050 and analyzed relative to G3PDH or actin using NIH Scion Image.
(§4) Antibodies against total HER1 and HER 4 and phosphorylated HER1-4, pPI3K, pAkt, pmTOR, p4E-BP1, pRaptor and pp70S6K obtained from Cell Signaling Technologies. Monoclonal antibodies to HER3 and HER4 were obtained from Thermo Scientific. Polyclonal antibody to the extracellular domain of E-cadherin and monoclonal antibody to α-actin were obtained from Santa Cruz Biotechnology. Monoclonal antibody to the extracellular domain of E-cadherin (DECMA-1) and to His Tag were obtained from Sigma and Abcam, respectively. Monoclonal antibody to G3PDH, ubiquitin and rat IgG1 were obtained from Ambion, Zymed and Southern Biotechnology, respectively.

[5] = test system: skin (SCC12b, SCC13, PAM212 and CC4A) and the head & neck FADU cell line; assay: Matrigel invasion of SCC cells; format: cell-based; details: for sEcad-induced invasion: PAM212 skin SCC cells, HER inhibitors
[6] = test system: oropharyngeal FADU and skin SCC (PAM212, CC4A, SCC13 and SCC12b) cell lines; assay: Proliferation in oropharyngeal and skin SCC cell lines; format: cell-based; details: PAM212 skin SCC cells; HER inhibitors
Description: as §2

[7] = test system: lysosome and ubiquitin-proteasome pathways; assay: Lysosome/proteasome inhibitor rescue of anti-sEcad mAb-induced apoptosis and HER1-4 expression; format: cell-based
Description: Cellular apoptosis was quantitatively determined using the Cell Death Apoptosis Detection ELISA Plus kit (Boehringer Mannheim), which is based on the detection of DNA-histone complexes in the form of mono- and oligo-nucleosomes, according to the manufacturer's instructions. Briefly, cells were treated in the presence or absence of various concentrations of DECMA-1 or rat IgG1 for 24 to 48 h. Cells were harvested by trypsinization, counted and lysates were subjected to the ELISA. In vitro and in vivo apoptosis was further analyzed by in situ detection of fragmented DNA, using the DeadEnd Fluorometric TUNEL System (Promega), the ApopTag Peroxidase In situ Apoptosis Detection Kit (Millipore) and the human Apoptosis Array Kit (ARY009, R & D), according to the manufacturer's instructions. The ApopTag kit was performed on deparaffinized 5 μm-thick sections treated with proteinase K (20 μg/ml) at RT. For cell counting, the cells were trypsinized and counted on a haemocytometer. For tumor BrdU analyses, tissues were stained using an anti-BrdU (ab2284, abcam) antibody, as previously described (27). The proliferation of cells was monitored by a cell proliferation ELISA 5-bromo-2′-deoxyuridine (BrdU) (colorimetric) kit (Roche, Stockholm, Sweden), according to the manufacturers protocol.
Human MCF-7 and BT474 parental cells were purchased from the American Type Culture Collection (ATCC), and cultured according to ATCC recommendations. BT474-Herceptin resistant cells were a kind gift of Dr. Kute (Wake Forest University, Winston-Salem, N.C.) and grown in 10% FBS RPMI-1640 medium (ATCC). Anti-sEcad ectodomain-specific antibodies include DECMA-1 (Sigma), HECD-1 (Calbiochem), SHE78-7 (Calbiochem) and H108 (Santa Cruz Biotechnology). The IAP antibody sampler kit was purchased from Cell Signaling. ALLN proteasome and chloroquine lysosome inhibitors were obtained from Sigma.

[8] = test system: MEK1/2, ERK1/2, PI3K, Akt, mTOR, p70S6K, 4EBP1; assay: Western blot of downstream MAPK-PI3K/Akt/mTOR signaling in SCC cell lines; format: cell-based; details: PAM212 cells
Description: as §3, §4

[9] = MCF-7 cells, 24 h, equimolar concentrations

## rhEGF: Recombinant human EGF (Enzo Life Sciences) (NSDSECPLSHDGYCLHDGVCMYIEALDKYACNCVVGYIGERCQYRDLKWWELR)
[1]; [9]
  migration: significantly increased proliferation, migration and invasion
HER1-4
  HER1 and ERK1/2 phosphorylation: more potent effects on HER1 and ERK1/2 phosphorylation
[2]; [9]
  invasion: significantly increased proliferation, migration and invasion
[3]; [9]
  proliferation: significantly increased proliferation, migration and invasion

## C=CC(=O)Nc1cc2c(Nc3ccc(F)c(Cl)c3)ncnc2cc1OCCCN1CCOCC1 [Canertinib]
[4]
  sEcad-induced migration: effectively inhibited sEcad-induced proliferation, migration and invasion
HER1, HER2, IGF-1R
  sEcad-induced HER1 phosphorylation: completely abrogated
  sEcad-induced HER2 phosphorylation (pHER2): completely abrogated
HER1, HER2, IGF-1R; in the presence of sEcad, compared to corresponding controls
  phospho-IGF-1R levels: did not alter
[3]
  basal and sEcad-induced BrdU incorporation: significantly reduced both basal and sEcad-induced BrdU incorporation
[5]
  sEcad-induced invasion: effectively inhibited sEcad-induced proliferation, migration and invasion
[6]
  sEcad-induced proliferation: effectively inhibited sEcad-induced proliferation, migration and invasion

## CCN(CC)CCCC(C)Nc1ccnc2cc(Cl)ccc12 (stereo not shown) [Chloroquine]
[7]
  HER1-4 expression in anti-sEcad mAb treated cells in presence of inhibitor: rescued HER1-4 membrane expression
  anti-sEcad mAb-induced apoptosis in presence of inhibitor: prevented anti-sEcad mAb-induced apoptosis at low doses

## CNC(=O)[C@H](Cc1c[nH]c2ccccc12)NC(=O)[C@@H](CC(=O)NO)CC(C)C [GM6001, Ilomastat]
[5]; PAM212 cells treated with 20 μg/mL rmEcad/Fc
  sEcad-stimulated invasion: completely blocked

## FC(F)(F)c1ccc(/C=C/c2nc(COc3ccc(CCCCn4ccnn4)cc3)co2)cc1 [Mubritinib]
[1]; breast cancer cells (MCF-7)
  basal and rhEcad/Fc-mediated migration: only blocked sECad-induced MCF-7 migration

## CCCC[C@@H](C=O)NC(=O)[C@H](CC(C)C)NC(=O)[C@H](CC(C)C)NC(C)=O [ALLN] (Ac-Leu-Leu-[Nle]-aldehyde)
[7]
  HER1-4 expression in anti-sEcad mAb treated cells in presence of inhibitor: rescue of HER1-4 expression
  anti-sEcad mAb-induced apoptosis in presence of inhibitor: inhibited

## COc1cc2ncnc(Nc3ccc(F)c(Cl)c3)c2cc1OCCCN1CCOCC1 [Gefitinib]
[4]
  sEcad-induced migration: effectively inhibited sEcad-induced proliferation, migration and invasion
[8]
  sEcad-induced phosphorylation of 4EBP1: only minimal effects
  sEcad-induced phosphorylation of ERK1/2, Akt and p70S6K: decreased
  sEcad-induced phosphorylation of PI3K: decreased
[2]; MDA-MB-231 cell line, compared to untreated controls
  basal and sEcad-induced invasion: significantly reduced
[3]
  basal and sEcad-induced BrdU incorporation: significantly reduced both basal and sEcad-induced BrdU incorporation
[5]
  sEcad-induced invasion: effectively inhibited sEcad-induced proliferation, migration and invasion
[6]
  sEcad-induced proliferation: effectively inhibited sEcad-induced proliferation, migration and invasion
